# Reference: US8552064B2, “Suramin and derivatives thereof as topical microbicide and contraceptive” (Eastern Virginia Medical School, priority 2005, dated 2013)
# Experiments:
# HIV-1 IIIB = test: Virus binding inhibition assay VBIA-IIIB in MT-2 cells; format: cell-based
# Experimental: VBIAIIIB: MT-2 cells, compounds and virus (HIV-1 IIIB) were mixed together in 96-well plates and incubated for 2 h at 37° C. At the end of this incubation period, the 96-well plates were centrifuged for 10 minutes and approximately 175 μL of medium was removed using a multichannel pipettor and replaced with 175 μL of fresh media. […] Modulation of virus induced cytopathic effects was measured by determining percent reduction in optical density (O.D.) using an XTT (2,3-bis(2-methoxy-4-nitro-5-sulfophenyl)-5-[phenylamino)carbonyl]-2H-tetrazolium hydroxide) dye reduction assay. Virus-induced cytopathic effects and mechanical artifacts due to media removal were verified by microscopic observations (Anderson R. A., et al., J. Androl., 21: 862-875 (2000)). The results of this assay are provided herein.
# sperm [1] = test: Sander Cramer sperm immobilization test; format: cell-based
# Experimental: The Sander Cramer test was used to determine the effect on sperm immobilization as described in Sander F V and Cramer S D., Hum. Fertil. 6: 134-153 (1941). This test may be used to evaluate the sperm-immobilizing effectiveness of contraceptive compositions. Serial dilutions of each test composition were added to semen adjusted to a designated number, e.g., 60 million of motile sperm per milliliter at room temperature (i.e., 25° C.). The end point is the greatest dilution at which all of the sperm are immobilized within 20 seconds. Results are expressed as minimum effective concentration in milligrams per milliliter.
# sperm [2] = test: Sperm progressive motility dose-response and time studies, CASA; format: cell-based, human
structure (smiles),measurement,setting,value
"Cc1ccc(C(=O)Nc2ccc(S(=O)(=O)O)c3cc(S(=O)(=O)O)cc(S(=O)(=O)O)c23)cc1NC(=O)c1cccc(NC(=O)Nc2cccc(C(=O)Nc3cc(C(=O)Nc4ccc(S(=O)(=O)O)c5cc(S(=O)(=O)O)cc(S(=O)(=O)O)c45)ccc3C)c2)c1 [Suramin, 8,8′-(carbonylbis(imino-3,1-phenylenecarbonylimino(4-methyl-3,1-phenylene)carbonylimino))bis-1,3,5-naphthalene trisulfonic acid]","Potency, HIV-1 VBIA-IIIb",HIV-1 IIIB,High
same,IC50,"HIV-1 IIIB; Human immunodeficiency virus 1, IIIB, MT2, 72 hours incubation, read-out: IC50 against IIIB, viral entry assay",7.3 µg/mL
same,sperm-immobilizing activity,sperm [1]; 20 mg/mL,no significant sperm-immobilizing activity
same,sperm motility in Sander Cramer test,sperm [1]; 10 and 5 mg/mL,all spermatozoa from samples were motile
same,"Potency, Motility (Sander Cramer, Motility, CASA)",sperm [1]; highest concentration = 25 mg/mL,None
same,sperm motion parameters by CASA,sperm [2]; 1 mM,no significant changes in sperm motion parameters
same,sperm motion characteristics vs control,sperm [2]; 7.5 mg/mL,did not appear to be significantly different
same,sperm progressive motility and membrane integrity vs solvent control,"sperm [2]; 1-10,000 μg/mL or 5-0.07 mM",no alteration of sperm progressive movement and viability
same,"sperm motility, time-dependent study","sperm [2]; suboptimal doses, prolonged incubation (e.g., 30 min.)",no alteration of sperm motility
